# Assay results as given in ChEMBL document CHEMBL5614376, “Discovery of MT-1207: A Novel, Potent Multitarget Inhibitor as a Promising Clinical Candidate for the Treatment of Hypertension” (J Med Chem, 2024).
# Legend:
# [1] = target: T1, 5-hydroxytryptamine receptor 2A (Homo sapiens, UniProt P28223); assay: Displacement of [3H]Ketanserin from recombinant human 5-HT2A receptor extracted from CHO cell membrane at 1 nM incubated for 60 mins by radioligand binding assay relative to control; type: cell membranes; conditions: filed as antagonist
# T1 sequence (P28223 whole entry): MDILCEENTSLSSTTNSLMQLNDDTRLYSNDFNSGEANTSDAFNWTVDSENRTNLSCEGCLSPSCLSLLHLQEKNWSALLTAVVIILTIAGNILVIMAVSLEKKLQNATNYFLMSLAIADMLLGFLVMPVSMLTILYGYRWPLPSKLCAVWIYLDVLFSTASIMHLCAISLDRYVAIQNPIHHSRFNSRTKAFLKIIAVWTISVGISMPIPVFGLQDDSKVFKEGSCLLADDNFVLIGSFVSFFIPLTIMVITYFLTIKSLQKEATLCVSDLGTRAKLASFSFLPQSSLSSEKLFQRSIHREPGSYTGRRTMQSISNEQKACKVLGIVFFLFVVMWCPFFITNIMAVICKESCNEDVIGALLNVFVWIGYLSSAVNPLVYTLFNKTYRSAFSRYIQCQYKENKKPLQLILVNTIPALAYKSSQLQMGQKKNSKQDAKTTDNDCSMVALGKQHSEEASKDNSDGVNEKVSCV
# [2] = target: T1, 5-hydroxytryptamine receptor 2A; assay: Displacement of [3H]Ketanserin from recombinant human 5-HT2A receptor extracted from CHO cell membrane incubated for 60 mins by radioligand binding assay; type: cell membranes
# [3] = Plasma protein binding in Beagle dog at 10 uM incubated for 30 mins; type: ADME, cell-free, Canis lupus familiaris; conditions: read-out: PPB (converted)
# [4] = Plasma protein binding in human at 10 uM incubated for 30 mins; type: ADME, cell-free; conditions: read-out: PPB (converted)
# [5] = Metabolic stability in human liver microsomes assessed as drug metabolism at 10 umol/L incubated upto 120 mins in presence of NADPH by LC-MS/MS analysis; type: ADME, Microsome; conditions: 2 h, 10 µM, dose 10 µmol/L
# [6] = Metabolic stability in human liver microsomes assessed as compound remaining at 10 umol/L incubated upto 120 mins in presence of NADPH by LC-MS/MS analysis; type: ADME, Microsome; conditions: dose 10 µmol/L, read-out: Stability
# [7] = Tmax in Sprague-Dawley rat at 1 mg/kg, iv measured for 24 hrs by UPLC/MS/MS analysis; type: ADME, organism-based; conditions: in vivo
# [8] = Half life in Sprague-Dawley rat at 1 mg/kg, po measured for 24 hrs by UPLC/MS/MS analysis; type: ADME, organism-based; conditions: in vivo
# [9] = Apparent oral clearance in Sprague-Dawley rat at 1 mg/kg, po measured for 24 hrs by UPLC/MS/MS analysis; type: ADME, organism-based; conditions: in vivo
# [10] = Cmax in Sprague-Dawley rat at 3 mg/kg, po measured for 24 hrs by UPLC/MS/MS analysis; type: ADME, organism-based; conditions: in vivo
# [11] = Oral bioavailability in Sprague-Dawley rat at 3 mg/kg measured for 24 hrs by UPLC/MS/MS analysis; type: ADME, organism-based; conditions: in vivo
# [12] = Tmax in Sprague-Dawley rat at 9 mg/kg, po measured for 24 hrs by UPLC/MS/MS analysis; type: ADME, organism-based; conditions: in vivo
# [13] = Cmax in Sprague-Dawley rat at 9 mg/kg, po measured for 24 hrs by UPLC/MS/MS analysis; type: ADME, organism-based; conditions: in vivo
# Rattus norvegicus [14] = assay: Effect on postural hypotension in Sprague-Dawley rat assessed as change in systolic blood pressure at 5 mg/kg, po treated for >30 mins followed by induction of postural hypotension measured immediately after postural change (reference value: 131 +/- 9 mmHg); type: functional; conditions: 0.5 h
# Rattus norvegicus [15] = assay: Effect on postural hypotension in Sprague-Dawley rat assessed as change in systolic blood pressure at 2.5 mg/kg, po treated for >30 mins followed by induction of postural hypotension measured 3 secs after postural change (reference value: 124 +/- 10 mmHg); type: functional; conditions: time > 30.05 min, 0.5008 h
# Rattus norvegicus [16] = assay: Effect on postural hypotension in Sprague-Dawley rat assessed as change in systolic blood pressure at 2.5 mg/kg, po treated for >30 mins followed by induction of postural hypotension measured 5 secs after postural change (reference value: 126 +/- 12 mmHg); type: functional; conditions: time > 30.08 min, 0.5013 h
# Rattus norvegicus [17] = assay: Effect on postural hypotension in Sprague-Dawley rat assessed as change in systolic blood pressure at 5 mg/kg, po treated for >30 mins followed by induction of postural hypotension measured 5 secs after postural change (reference value: 126 +/- 12 mmHg); type: functional; conditions: time > 30.08 min, 0.5013 h
# Rattus norvegicus [18] = assay: Effect on postural hypotension in Sprague-Dawley rat assessed as change in systolic blood pressure at 5 mg/kg, po treated for >30 mins followed by induction of postural hypotension measured 10 secs after postural change (reference value: 127 +/- 12 mmHg); type: functional; conditions: time > 30.17 min, 0.5028 h
# Rattus norvegicus [19] = assay: Effect on postural hypotension in Sprague-Dawley rat assessed as change in systolic blood pressure at 10 mg/kg, po treated for >30 mins followed by induction of postural hypotension measured 10 secs after postural change (reference value: 127 +/- 12 mmHg); type: functional; conditions: time > 30.17 min, 0.5028 h
# Rattus norvegicus [20] = assay: Effect on postural hypotension in Sprague-Dawley rat assessed as change in systolic blood pressure at 10 mg/kg, po treated for >30 mins followed by induction of postural hypotension measured 40 secs after postural change (reference value: 128 +/- 11 mmHg); type: functional; conditions: time > 30.67 min, 0.5112 h
# [21] = Acute toxicity in Sprague-Dawley rat assessed as unscheduled animal fatality at 250 to 1000 mg/kg, po single administration measured for 14 days; type: organism-based; conditions: in vivo, 336 h, dose 250-1000 mg/kg, time 14 day
# [22] = Acute toxicity in Sprague-Dawley rat assessed as change in body weight at 250 to 1000 mg/kg, po single administration measured for 14 days; type: organism-based; conditions: in vivo, 336 h, dose 250-1000 mg/kg, time 14 day
# [23] = Acute toxicity in Sprague-Dawley rat assessed as change in morphology of animal at 250 to 1000 mg/kg, po single administration measured for 14 days; type: organism-based; conditions: in vivo, 336 h, dose 250-1000 mg/kg, time 14 day
# [24] = Toxicity in Sprague-Dawley rat assessed as unplanned animal mortality at 10 to 100 mg/kg, po qd treated for 13 weeks consecutively measured after 4 week recovery period; type: organism-based; conditions: in vivo, 2856 h, dose 10-100 mg/kg, time 17 weeks
# [25] = Toxicity in Sprague-Dawley rat assessed as body weight anomaly at 10 mg/kg, po qd treated for 13 weeks consecutively measured after 4 week recovery period; type: organism-based; conditions: in vivo, 2856 h, time 17 weeks
# [26] = Toxicity in male Sprague-Dawley rat assessed as reduction in body weight at 30 mg/kg, po qd treated for 11 days consecutively; type: organism-based; parameters: scale not given: the % may be the effect or the level left; conditions: in vivo, 264 h, time 11 day
# [27] = Cmax in male Sprague-Dawley rat at 30 mg/kg, po measured on day 1 by UP/LC/MS/MS analysis; type: ADME, organism-based; conditions: in vivo, time 1 day
# [28] = Cmax in male Sprague-Dawley rat at 100 mg/kg, po measured on day 1 by UP/LC/MS/MS analysis; type: ADME, organism-based; conditions: in vivo, time 1 day
# [29] = Tmax in male Sprague-Dawley rat at 30 mg/kg, po qd treated for 13 weeks consecutively measured after recovery period on day 91 by UP/LC/MS/MS analysis; type: ADME, organism-based; conditions: in vivo, time 91 day
# [30] = Tmax in female Sprague-Dawley rat at 100 mg/kg, po qd treated for 13 weeks consecutively measured after recovery period on day 91 by UP/LC/MS/MS analysis; type: ADME, organism-based; conditions: in vivo, time 91 day
# [31] = Cmax in male Sprague-Dawley rat at 10 mg/kg, po qd treated for 13 weeks consecutively measured after recovery period on day 91 by UP/LC/MS/MS analysis; type: ADME, organism-based; conditions: in vivo, time 91 day
# [32] = AUC (0 to t) in female Sprague-Dawley rat at 10 mg/kg, po qd treated for 13 weeks consecutively measured after recovery period on day 91 by UP/LC/MS/MS analysis; type: ADME, organism-based; conditions: in vivo, time 91 day
# [33] = AUC (0 to t) in female Sprague-Dawley rat at 30 mg/kg, po qd treated for 13 weeks consecutively measured after recovery period on day 91 by UP/LC/MS/MS analysis; type: ADME, organism-based; conditions: in vivo, time 91 day
# [34] = Toxicity in Sprague-Dawley rat assessed as drug tolerance at 10 to 100 mg/kg, po qd treated for 13 weeks; type: organism-based; conditions: in vivo, 2184 h, dose 10-100 mg/kg
compound,measurement,setting,value
Cl.c1ccc2c(c1)nnn2CCCCN1CCN(c2nsc3ccccc23)CC1,inhibition,[1],43.7%
same,IC50,[2],0.27 nM
same,Ki,[2],0.079 nM
same,"fraction unbound at 0.5 h, 10 µM",[3],0.007
same,"fraction unbound at 0.5 h, 10 µM",[4],0.004
same,Drug metabolism,[5],Metabolite_Detected
same,"remaining at 2 h, 10 µM",[6],23.9%
same,Tmax,[7],15 min
same,half-life,[8],90 min
same,CL/F,[9],388 mL/min
same,Cmax,[10],85.7 ng/mL
same,bioavailability,[11],31.9%
same,Tmax,[12],39 min
same,Cmax,[13],186 ng/mL
same,Activity,Rattus norvegicus [14],89 mmHg
same,Activity,Rattus norvegicus [15],90 mmHg
same,Activity,Rattus norvegicus [16],89 mmHg
same,Activity,Rattus norvegicus [17],79 mmHg
same,Activity,Rattus norvegicus [18],82 mmHg
same,Activity,Rattus norvegicus [19],84 mmHg
same,Activity,Rattus norvegicus [20],85 mmHg
same,Activity,[21],Non-Toxic
same,Activity,[22],Non-Toxic
same,Activity,[23],Non-Toxic
same,Activity,[24],Non-Toxic
same,Activity,[25],Non-Toxic
same,Activity,[26],~ 3.3%
same,Cmax,[27],109 ng/mL
same,Cmax,[28],347 ng/mL
same,Tmax,[29],1 h
same,Tmax,[30],2.5 h
same,Cmax,[31],36.2 ng/mL
same,AUC(0-t) at 2184 h,[32],439 ng·h/mL
same,AUC(0-t) at 2184 h,[33],1470 ng·h/mL
same,Activity,[34],Non-Toxic
